Measured values as given in ChEMBL document CHEMBL1201862, “PubChem BioAssay data set” (2004).
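Values below derive from 48-hour exposures of cells grown in 96-well plates, with endpoints linearly interpolated between the two concentrations bracketing the appropriate inhibition level. Abbreviation: GI50, concentration required for 50% inhibition of growth.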 Active and inactive are the calls of the source. Rule as the data show it: active = GI50 up to about 1.1 µM and inactive = higher.

Columns and labels:
Experiment in all cases: NCI anticancer screen, dose series, 48 h
[1] = tested on: T47D
[2] = tested on: SF-295
[3] = tested on: SK-MEL-28
[4] = tested on: MCF7
[5] = tested on: Hs-578T
[6] = tested on: HCC 2998
[7] = tested on: SK-MEL-2
[8] = tested on: DU-145
[9] = tested on: SW-620
[10] = tested on: Malme-3M
[11] = tested on: M14
[12] = tested on: U-251
[13] = tested on: UACC-257
[14] = tested on: TK-10
[15] = tested on: COLO 205
[16] = tested on: UO-31
[17] = tested on: NCI-H23
[18] = tested on: OVCAR-8
[19] = tested on: MOLT-4
[20] = tested on: LOX IMVI

| SMILES | GI50 [1] | GI50 [2] | GI50 [3] | GI50 [4] | GI50 [5] | GI50 [6] | GI50 [7] | GI50 [8] | GI50 [9] | GI50 [10] | GI50 [11] | GI50 [12] | GI50 [13] | GI50 [14] | GI50 [15] | GI50 [16] | GI50 [17] | GI50 [18] | GI50 [19] | GI50 [20] |
| --- | --- | --- | --- | --- | --- | --- | --- | --- | --- | --- | --- | --- | --- | --- | --- | --- | --- | --- | --- | --- |
| COc1cc2c(c(OC)c1OC)-c1c(cc3c(c1OC)OCO3)CC(C)C(C)(O)C2OC(=O)c1ccccc1 (stereo not given) | 42.3 µM (inactive) | 39.4 µM (inactive) | 63.7 µM (inactive) | 44.9 µM (inactive) | 32.5 µM (inactive) | 22.9 µM (inactive) | 25 µM (inactive) | 69.8 µM (inactive) | 71.8 µM (inactive) | 45.5 µM (inactive) | 34.4 µM (inactive) | 39.9 µM (inactive) | 44.9 µM (inactive) | 96.2 µM (inactive) | 22.5 µM (inactive) | 21.1 µM (inactive) | 45.4 µM (inactive) | 40.6 µM (inactive) | 5.58 µM (inactive) | 31.2 µM (inactive) |
| COc1ccc(N2C(=O)C3c4[nH]c5ccc(OCc6ccccc6)cc5c4C4CCC(c5ccccc5)CC4C3C2=O)cc1 (stereo not given) | 7.73 µM (inactive) | 11 µM (inactive) | 1.94 µM (inactive) | 29.6 µM (inactive) | 5.42 µM (inactive) | 4.84 µM (inactive) | 23.1 µM (inactive) | 8.07 µM (inactive) | 2.02 µM (inactive) | 2.35 µM (inactive) | 6.78 µM (inactive) | 2.54 µM (inactive) | 42.9 µM (inactive) | 7.55 µM (inactive) | 10.8 µM (inactive) | 53.6 µM (inactive) | 9.62 µM (inactive) | 8.91 µM (inactive) | 14.7 µM (inactive) | 15.2 µM (inactive) |
| O=C(NCc1cccnc1)C(=O)NCc1cccnc1 | > 100 µM (inactive) | > 100 µM (inactive) | > 100 µM (inactive) | > 100 µM (inactive) | > 100 µM (inactive) | > 100 µM (inactive) | > 100 µM (inactive) | > 100 µM (inactive) | > 100 µM (inactive) | > 100 µM (inactive) | > 100 µM (inactive) | > 100 µM (inactive) | > 100 µM (inactive) | > 100 µM (inactive) | > 100 µM (inactive) | > 100 µM (inactive) | > 100 µM (inactive) | > 100 µM (inactive) | 0.149 µM (active) | > 100 µM (inactive) |
| COc1ccc(N2C(=O)C3c4[nH]c5ccc(F)cc5c4C4CCC(c5ccccc5)CC4C3C2=O)cc1 (stereo not given) | 39.3 µM (inactive) | 31 µM (inactive) | 13.5 µM (inactive) | 18.7 µM (inactive) | 10.8 µM (inactive) | 39.9 µM (inactive) | 21.8 µM (inactive) | 66.2 µM (inactive) | 8.38 µM (inactive) | 16.1 µM (inactive) | 12.9 µM (inactive) | 9.98 µM (inactive) | 26.7 µM (inactive) | 21.9 µM (inactive) | 31.1 µM (inactive) | 21.4 µM (inactive) | 18.8 µM (inactive) | 17.8 µM (inactive) | 8.18 µM (inactive) | 36.8 µM (inactive) |
| CNc1ncnc2c1cnn2COCC(O)CO (stereo not given) | > 100 µM (inactive) | > 100 µM (inactive) | > 100 µM (inactive) | > 100 µM (inactive) | > 100 µM (inactive) | > 100 µM (inactive) | > 100 µM (inactive) | > 100 µM (inactive) | > 100 µM (inactive) | > 100 µM (inactive) | > 100 µM (inactive) | > 100 µM (inactive) | > 100 µM (inactive) | > 100 µM (inactive) | > 100 µM (inactive) | > 100 µM (inactive) | > 100 µM (inactive) | > 100 µM (inactive) | > 100 µM (inactive) | > 100 µM (inactive) |
| C=C1CC[C@@]2(OC1)OC1C[C@H]3[C@@H]4CC=C5C[C@@H](O)CC(OC6OCC(OC(=O)[C@@H](O)[C@@H](C)CC)C(OC(C)=O)C6OC6OC(C)C(O)C(O)C6O)[C@]5(C)[C@H]4CC[C@]3(C)C1[C@@H]2C (stereo not given in full) | 4.78 µM (inactive) | 1.75 µM (inactive) | 2.2 µM (inactive) | 1.84 µM (inactive) | 3.4 µM (inactive) | 1.6 µM (inactive) | 1.57 µM (inactive) | 2.07 µM (inactive) | 2.1 µM (inactive) | 3.84 µM (inactive) | 2.11 µM (inactive) | 1.75 µM (inactive) | 2.21 µM (inactive) | 1.88 µM (inactive) | 2.11 µM (inactive) | 2.4 µM (inactive) | 2.44 µM (inactive) | 2.16 µM (inactive) | 1.7 µM (inactive) | 1.87 µM (inactive) |
| NS(=O)(=O)c1nnc(NC(=O)CCC(=O)O)s1 | > 100 µM (inactive) | > 100 µM (inactive) | > 100 µM (inactive) | > 100 µM (inactive) | > 100 µM (inactive) | > 100 µM (inactive) | > 100 µM (inactive) | > 100 µM (inactive) | > 100 µM (inactive) | > 100 µM (inactive) | > 100 µM (inactive) | > 100 µM (inactive) | > 100 µM (inactive) | > 100 µM (inactive) | > 100 µM (inactive) | > 100 µM (inactive) | > 100 µM (inactive) | > 100 µM (inactive) | > 100 µM (inactive) | > 100 µM (inactive) |
| CCOC(=O)NN(C(=O)OCC)C(C(=O)C1=CCCCC1)N(NC(=O)OCC)C(=O)OCC | > 100 µM (inactive) | > 100 µM (inactive) | > 100 µM (inactive) | > 100 µM (inactive) | > 100 µM (inactive) | > 100 µM (inactive) | > 100 µM (inactive) | > 100 µM (inactive) | > 100 µM (inactive) | > 100 µM (inactive) | > 100 µM (inactive) | > 100 µM (inactive) | > 100 µM (inactive) | > 100 µM (inactive) | > 100 µM (inactive) | > 100 µM (inactive) | > 100 µM (inactive) | > 100 µM (inactive) | > 100 µM (inactive) | > 100 µM (inactive) |
| C=C(C(=O)O[C@H]1C/C(C)=C/CC/C(CO)=C/[C@H]2C(=O)OC(=C)[C@H]12)C(O)CO (stereo not given in full) | 3.75 µM (inactive) | 26.1 µM (inactive) | 14.5 µM (inactive) | 11.5 µM (inactive) | 23.5 µM (inactive) | 16.4 µM (inactive) | 15.6 µM (inactive) | 17.3 µM (inactive) | 3.71 µM (inactive) | 5.16 µM (inactive) | 12.2 µM (inactive) | 12.1 µM (inactive) | 11.5 µM (inactive) | 7.93 µM (inactive) | 3.37 µM (inactive) | 8.18 µM (inactive) | 16.3 µM (inactive) | 15.2 µM (inactive) | 5.37 µM (inactive) | 16.3 µM (inactive) |
| COc1cc2c(cc1C[C@H]1[C@@H]3C[C@H]4c5c(c6ccccc6n5C)C[C@@H]([C@@H]3CO[C@]1(C)OC(C)=O)N4C)c1c(n2C)C2C[C@H]3C(C(C)=O)=COC[C@H]3[C@H](C1)N2C | 2.2 µM (inactive) | 4.67 µM (inactive) | 9.91 µM (inactive) | 7.48 µM (inactive) | 2.8 µM (inactive) | 0.0102 µM (active) | 4.86 µM (inactive) | 6.38 µM (inactive) | 4.13 µM (inactive) | 3.18 µM (inactive) | 3.11 µM (inactive) | 5.57 µM (inactive) | 4.03 µM (inactive) | 3.62 µM (inactive) | 3.08 µM (inactive) | 6.27 µM (inactive) | 7.06 µM (inactive) | 3.66 µM (inactive) | 2.44 µM (inactive) | > 25 µM (inactive) |
| NC1CCCCC1NCCNC1CCCCC1N (stereo not given) | > 100 µM (inactive) | > 100 µM (inactive) | > 100 µM (inactive) | 45.9 µM (inactive) | 44.7 µM (inactive) | 32.8 µM (inactive) | > 100 µM (inactive) | > 100 µM (inactive) | 41.6 µM (inactive) | > 100 µM (inactive) | > 100 µM (inactive) | 30.5 µM (inactive) | > 100 µM (inactive) | > 100 µM (inactive) | 15.9 µM (inactive) | > 100 µM (inactive) | 29.9 µM (inactive) | > 100 µM (inactive) | 36.1 µM (inactive) | 86.5 µM (inactive) |
| OCC1OC(O[C@H]2CN3[C@H](O)[C@@H](O)[C@H](O)[C@H]3C2O)C(O)C(O)C1O (stereo not given in full) | > 100 µM (inactive) | > 100 µM (inactive) | > 100 µM (inactive) | > 100 µM (inactive) | > 100 µM (inactive) | > 100 µM (inactive) | > 100 µM (inactive) | > 100 µM (inactive) | > 100 µM (inactive) | > 100 µM (inactive) | > 100 µM (inactive) | > 100 µM (inactive) | > 100 µM (inactive) | > 100 µM (inactive) | > 100 µM (inactive) | > 100 µM (inactive) | > 100 µM (inactive) | > 100 µM (inactive) | > 100 µM (inactive) | > 100 µM (inactive) |
| CNC(=O)OCc1c(COC(=O)NC)c(-c2ccc(-c3ccccc3)cc2)n(C)c1C | 2.39 µM (inactive) | 1.43 µM (inactive) | 10.9 µM (inactive) | 2.75 µM (inactive) | 11 µM (inactive) | 2.82 µM (inactive) | 0.494 µM (active) | 2.18 µM (inactive) | 5.48 µM (inactive) | 1.15 µM (inactive) | 1.47 µM (inactive) | 1.92 µM (inactive) | 6.95 µM (inactive) | 3.15 µM (inactive) | 4.32 µM (inactive) | 1.18 µM (inactive) | 2.06 µM (inactive) | 2.26 µM (inactive) | 0.299 µM (active) | 2.19 µM (inactive) |
